Assay results taken from PubChem BioAssay AID743097 (Vanderbilt Specialized Chemistry Center, 2013).
The source made the active and inactive calls. The rule behind the calls is not given here.

molecular target: Muscarinic acetylcholine receptor M1 (Homo sapiens) (UniProt P11229); assay: M1 receptor positive allosteric modulation, selectivity assay for M5 PAM discovery project, cell-based, human M1 (AID 743097); details: CHO-K1 hM1, Fluo-4 calcium flux, ACh EC20 potentiation
Sequence (P11229 whole entry, looked up): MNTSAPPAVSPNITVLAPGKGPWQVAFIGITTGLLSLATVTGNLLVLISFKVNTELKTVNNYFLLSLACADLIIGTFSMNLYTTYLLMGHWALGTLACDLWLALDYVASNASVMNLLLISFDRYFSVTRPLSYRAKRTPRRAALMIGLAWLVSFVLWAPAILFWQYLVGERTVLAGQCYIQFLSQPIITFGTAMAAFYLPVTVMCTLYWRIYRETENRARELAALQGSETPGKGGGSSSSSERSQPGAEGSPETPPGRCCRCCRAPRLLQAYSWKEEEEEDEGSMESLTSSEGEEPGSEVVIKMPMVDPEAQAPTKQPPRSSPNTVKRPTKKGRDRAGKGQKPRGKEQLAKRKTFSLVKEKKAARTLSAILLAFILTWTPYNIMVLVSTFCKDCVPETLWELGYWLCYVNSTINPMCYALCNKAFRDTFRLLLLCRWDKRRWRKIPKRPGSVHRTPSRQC

SMILES	EC50 [µM]
CCN(Cc1ccccc1C(F)(F)F)C(=O)C1(F)CCN(S(=O)(=O)c2ccc3[nH]ncc3c2)CC1	4.84
CCN(Cc1ccccc1Cl)C(=O)C1CCN(S(=O)(=O)c2ccc3cn[nH]c3c2)CC1	3.97
CCN(C(=O)C1CCN(S(=O)(=O)c2ccc3[nH]ncc3c2)CC1)[C@H](C)c1ccccc1	5.28
CCN(Cc1ccccc1Cl)C(=O)C1CCN(S(=O)(=O)c2ccc3[nH]ncc3c2)CC1	2.52
CCN(Cc1ccccc1C(F)(F)F)C(=O)C1CCN(S(=O)(=O)c2ccc3[nH]ncc3c2)CC1	6.99

same assay, conditions: CHO-K1 hM1, Fluo-4 calcium flux, ACh EC20 potentiation; at 30 µM (top of the series)

SMILES	% of ACh max response
CCN(C(=O)C1CCN(S(=O)(=O)c2ccc(OC)cc2)CC1)[C@H](C)c1ccccc1	inactive
